# Active and inactive are the calls of the source.
# Legend:
# [1] = HIV-1 AD8 envelope cell-cell fusion blockers – cherry-pick, dose response (AID 652062); type: functional, cell-based;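 also: luciferase signal from cell-cell fusion driven by HIV-1 clade B AD8 Env; potency is for inhibitors of fusion seen as a drop in luminescence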
# [2] = off-target signal loss in HeLa-CEM21 co-culture – HeLa F-luc CTL cells, cherry-picked, counter-screen for HIV-1 Env fusion inhibitor project, dose response (AID 652040); type: functional, cell-based;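 also: potency for signal decrease marking cytotoxic or nonspecific inhibition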
# [3] = viability of uninfected HEp-2 cells – cell-based, HTS, cytotoxicity control for RSV inhibitor project, dose response (AID 2410); type: functional; settings: human respiratory syncytial virus
# [4] = blockers of HIV-1 envelope-mediated cell-cell fusion – cherry-pick, dose response (AID 652057); type: functional, cell-based
# [5] = blockers of HIV-1 ZM109 envelope-driven cell-cell fusion – HeLa effector, CEM target cells, luciferase, cherry-pick, dose response (AID 652058); type: functional, cell-based;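 also: luciferase signal from HIV-1 Env mediated cell-cell fusion of effector and target cells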
# Mucolipin-3 = Mucolipin-3 (Homo sapiens, UniProt Q8TDD5); experiment: Dose response cell-based high-throughput screening assay for agonists of the transient receptor potential channel ML3 (TRPML3). [Related pubchem assays: 1526, 1424, 1448 ]; type: functional
# Mucolipin-3, sequence (Q8TDD5 whole entry): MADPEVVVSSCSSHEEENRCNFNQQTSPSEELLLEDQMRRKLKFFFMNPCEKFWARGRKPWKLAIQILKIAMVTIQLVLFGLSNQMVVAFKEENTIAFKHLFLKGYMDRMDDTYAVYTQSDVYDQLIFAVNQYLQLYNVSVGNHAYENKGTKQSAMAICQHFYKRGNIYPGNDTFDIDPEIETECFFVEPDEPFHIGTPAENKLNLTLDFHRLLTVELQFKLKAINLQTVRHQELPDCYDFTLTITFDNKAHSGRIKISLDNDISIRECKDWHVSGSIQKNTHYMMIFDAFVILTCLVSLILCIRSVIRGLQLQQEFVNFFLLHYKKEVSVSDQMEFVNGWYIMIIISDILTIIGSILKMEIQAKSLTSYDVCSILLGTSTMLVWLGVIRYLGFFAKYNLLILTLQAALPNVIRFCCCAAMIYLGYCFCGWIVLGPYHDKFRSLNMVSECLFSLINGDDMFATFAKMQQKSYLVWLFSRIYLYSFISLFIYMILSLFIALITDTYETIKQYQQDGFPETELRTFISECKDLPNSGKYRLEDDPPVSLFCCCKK
# Ion channel NompC = Ion channel NompC (Danio rerio, UniProt Q7T1G6); experiment: Fluorescence counterscreen assay for TRPML3 agonists: dose response cell-based high-throughput screening assay to identify agonists of the transient receptor potential channel N1 (TRPN1). [Related pubchem assays: 1526, 1424, 1448 ]; type: functional
# Ion channel NompC, sequence (Q7T1G6 whole entry): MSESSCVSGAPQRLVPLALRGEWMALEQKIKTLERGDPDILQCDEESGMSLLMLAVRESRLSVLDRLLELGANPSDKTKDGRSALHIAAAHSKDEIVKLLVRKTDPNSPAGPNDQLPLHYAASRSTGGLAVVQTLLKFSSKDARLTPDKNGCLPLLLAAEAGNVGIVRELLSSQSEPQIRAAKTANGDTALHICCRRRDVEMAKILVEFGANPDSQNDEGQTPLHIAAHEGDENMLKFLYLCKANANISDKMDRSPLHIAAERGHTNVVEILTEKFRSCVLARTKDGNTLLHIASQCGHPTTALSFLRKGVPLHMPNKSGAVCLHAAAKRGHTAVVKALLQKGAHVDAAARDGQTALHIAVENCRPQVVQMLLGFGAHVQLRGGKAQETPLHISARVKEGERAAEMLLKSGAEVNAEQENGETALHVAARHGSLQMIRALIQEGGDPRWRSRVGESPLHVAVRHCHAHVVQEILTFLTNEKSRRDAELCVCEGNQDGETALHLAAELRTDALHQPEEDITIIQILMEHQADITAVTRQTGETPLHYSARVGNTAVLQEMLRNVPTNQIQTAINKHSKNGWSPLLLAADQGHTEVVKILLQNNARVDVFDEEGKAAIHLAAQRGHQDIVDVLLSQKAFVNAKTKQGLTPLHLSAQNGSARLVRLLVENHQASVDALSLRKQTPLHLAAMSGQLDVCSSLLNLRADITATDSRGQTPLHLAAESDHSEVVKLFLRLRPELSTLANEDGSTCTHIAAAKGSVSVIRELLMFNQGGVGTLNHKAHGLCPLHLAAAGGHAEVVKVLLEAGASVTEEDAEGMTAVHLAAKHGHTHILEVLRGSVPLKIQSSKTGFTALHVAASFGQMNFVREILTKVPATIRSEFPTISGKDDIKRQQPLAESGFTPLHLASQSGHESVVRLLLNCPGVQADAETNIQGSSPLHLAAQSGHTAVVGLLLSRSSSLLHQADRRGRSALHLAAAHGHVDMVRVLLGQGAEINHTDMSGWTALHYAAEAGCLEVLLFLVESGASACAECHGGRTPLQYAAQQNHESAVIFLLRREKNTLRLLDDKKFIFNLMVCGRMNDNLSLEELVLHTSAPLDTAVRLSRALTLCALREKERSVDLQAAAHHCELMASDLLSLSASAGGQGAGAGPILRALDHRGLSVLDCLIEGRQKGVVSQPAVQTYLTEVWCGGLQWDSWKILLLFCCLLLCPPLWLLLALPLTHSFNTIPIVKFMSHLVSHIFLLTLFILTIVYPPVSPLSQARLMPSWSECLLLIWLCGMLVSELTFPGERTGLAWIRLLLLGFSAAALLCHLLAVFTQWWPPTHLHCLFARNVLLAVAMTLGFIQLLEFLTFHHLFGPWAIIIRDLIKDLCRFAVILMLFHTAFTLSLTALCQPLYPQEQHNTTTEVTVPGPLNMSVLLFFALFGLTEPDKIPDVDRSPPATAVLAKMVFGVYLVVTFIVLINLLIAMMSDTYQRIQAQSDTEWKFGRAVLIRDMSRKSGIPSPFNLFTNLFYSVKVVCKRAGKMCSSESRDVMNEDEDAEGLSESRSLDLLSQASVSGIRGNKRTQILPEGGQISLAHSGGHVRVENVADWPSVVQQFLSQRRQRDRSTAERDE
# [6] = fluconazole-exposed Candida albicans growth modulators – fluorescence, retest, confirmation (AID 2467); type: functional, cell-based
# [7] = molecular target: ATP-dependent molecular chaperone HSP82 (Candida albicans (strain WO-1) (Yeast), UniProt C4YTQ8); experiment: steroid-induced GRE reporter decrease in yeast – S. cerevisiae, luminescence, Hsp90 inhibitor project, dose response (AID 2400); type: functional, cell-based;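 also: beta-galactosidase luminescence from glucocorticoid response element reporter as proxy for Hsp90 function; inhibitor potency where signal loss means Hsp90 inhibition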
# ATP-dependent molecular chaperone HSP82, sequence (C4YTQ8 whole entry): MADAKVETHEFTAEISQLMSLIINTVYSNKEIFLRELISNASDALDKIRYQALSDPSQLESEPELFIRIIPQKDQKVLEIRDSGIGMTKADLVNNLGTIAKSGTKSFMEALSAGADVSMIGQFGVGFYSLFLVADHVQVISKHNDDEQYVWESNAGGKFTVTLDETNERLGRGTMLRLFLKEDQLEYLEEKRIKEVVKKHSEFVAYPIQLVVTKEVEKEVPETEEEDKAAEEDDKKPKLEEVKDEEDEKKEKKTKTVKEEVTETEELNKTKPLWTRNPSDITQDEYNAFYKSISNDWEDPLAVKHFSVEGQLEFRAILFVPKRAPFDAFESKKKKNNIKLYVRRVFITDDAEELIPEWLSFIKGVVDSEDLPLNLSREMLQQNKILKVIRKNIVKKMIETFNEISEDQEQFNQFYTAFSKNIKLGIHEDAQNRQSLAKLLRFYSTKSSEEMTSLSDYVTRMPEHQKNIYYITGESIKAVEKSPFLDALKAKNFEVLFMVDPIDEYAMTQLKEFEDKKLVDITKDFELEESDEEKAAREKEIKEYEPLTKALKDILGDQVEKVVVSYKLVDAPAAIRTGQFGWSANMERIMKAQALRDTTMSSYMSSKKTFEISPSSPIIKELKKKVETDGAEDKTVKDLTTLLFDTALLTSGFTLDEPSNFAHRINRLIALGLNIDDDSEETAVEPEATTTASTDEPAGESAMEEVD
# HEK293 [8] = experiment: EBV LMP1 TES2 canonical NF-kB signalling blockers – cell-based, HEK293, luciferase, cherry-pick, dose response (AID 588343); type: functional; settings: Homo sapiens
# [9] = molecular target: Nucleotide-binding oligomerization domain-containing protein 2 (Homo sapiens, UniProt Q9HC29); experiment: inhibition of NOD2-driven NF-kB reporter – cell-based, luminescence, uHTS, HEK293 (AID 1566); type: functional
# Nucleotide-binding oligomerization domain-containing protein 2, sequence (Q9HC29 whole entry, the tested form may be a part): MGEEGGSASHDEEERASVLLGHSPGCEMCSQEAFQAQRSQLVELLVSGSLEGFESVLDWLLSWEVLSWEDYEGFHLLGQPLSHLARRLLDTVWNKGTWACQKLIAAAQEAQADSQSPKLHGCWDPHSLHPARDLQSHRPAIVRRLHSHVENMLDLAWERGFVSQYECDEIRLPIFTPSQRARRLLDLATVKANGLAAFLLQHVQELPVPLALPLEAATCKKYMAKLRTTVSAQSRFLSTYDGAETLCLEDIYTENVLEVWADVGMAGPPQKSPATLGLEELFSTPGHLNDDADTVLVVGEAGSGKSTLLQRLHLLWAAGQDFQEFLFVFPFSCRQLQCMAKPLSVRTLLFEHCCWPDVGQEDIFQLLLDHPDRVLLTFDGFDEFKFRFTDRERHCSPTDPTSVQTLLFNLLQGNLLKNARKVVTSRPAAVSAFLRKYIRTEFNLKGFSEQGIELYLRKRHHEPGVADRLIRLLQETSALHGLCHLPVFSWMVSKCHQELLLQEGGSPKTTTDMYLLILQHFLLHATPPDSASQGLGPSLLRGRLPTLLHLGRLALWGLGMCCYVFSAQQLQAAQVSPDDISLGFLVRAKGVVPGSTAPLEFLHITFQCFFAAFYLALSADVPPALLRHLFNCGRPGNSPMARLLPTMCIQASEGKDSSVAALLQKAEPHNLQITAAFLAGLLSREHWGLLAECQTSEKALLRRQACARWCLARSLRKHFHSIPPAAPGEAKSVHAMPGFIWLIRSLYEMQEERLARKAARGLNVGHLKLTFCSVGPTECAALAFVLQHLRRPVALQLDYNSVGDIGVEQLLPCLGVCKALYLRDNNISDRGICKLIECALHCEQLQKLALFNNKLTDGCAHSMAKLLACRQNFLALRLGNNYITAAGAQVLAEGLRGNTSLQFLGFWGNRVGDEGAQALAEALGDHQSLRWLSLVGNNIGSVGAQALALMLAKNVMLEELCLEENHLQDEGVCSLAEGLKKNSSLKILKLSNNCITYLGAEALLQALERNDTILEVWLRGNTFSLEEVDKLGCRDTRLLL
# [10] = NIH-3T3 fibroblast cytotoxicity, dose response, cytotoxicity control, cell-based, fluorescence, Alamar Blue, secondary assay (AID 2327); type: functional;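 also: NIH-3T3 mouse fibroblasts cultured with fluconazole at 8 µg/mL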
# Vero [11] = experiment: cells; type: functional, cell-based; settings: Chlorocebus sabaeus
# HEK293 [12] = experiment: NOD2 signaling inhibitors in MDP-stimulated cells, cell-based, uHTS, luminescence (AID 2001); type: functional; settings: Homo sapiens
# BJ [13] = experiment: BJ-TERT-LT-ST fibroblast viability loss – cell-based, RAS-independent, luminescence, dose response (AID 1935); type: functional; settings: Homo sapiens;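 also: BJ fibroblasts immortalized with TERT plus LT and ST oncogenes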
# HEK293 [14] = experiment: cells; type: functional, cell-based; settings: Homo sapiens
# HEK293 [15] = experiment: cells; type: functional, cell-based; settings: Homo sapiens; remark: listed apart in the source
# [16] = DRD fibroblast viability loss – cell-based, non-viral oncogenic, luminescence, dose response (AID 1934); type: functional; settings: Homo sapiens
# [17] = molecular target: Heat shock protein HSP 90-alpha (Homo sapiens, UniProt P07900); type: functional, organism-based
# BJ [18] = experiment: BJ-TERT fibroblast viability loss – cell-based, RAS-independent, luminescence, dose response (AID 1933); type: functional; settings: Homo sapiens
# [19] = molecular target: Voltage-gated inwardly rectifying potassium channel KCNH2 (Homo sapiens, UniProt Q12809); experiment: concentration-dependent hERG rescue from blockers – cell-based, thallium flux, dose response (AID 2121); type: ADME
# HEK293 [20] = experiment: cells; type: functional, cell-based; settings: Homo sapiens; remark: listed apart in the source
# [21] = molecular target: T1, Serine/threonine-protein phosphatase (Candida dubliniensis (strain CD36 / CBS 7987 / NCPF 3949 / NRRLY-17841) (Yeast), UniProt B9W6M3); experiment: blockers of CaCl2-induced CDRE-lacZ signaling – S. cerevisiae, luminescence, secondary, dose response (AID 2388); type: functional, cell-based;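 also: yeast reporter cells carrying a calcineurin-responsive lacZ construct stimulated with calcium chloride; luminescent beta-galactosidase reporter signal in whole cells rather than isolated phosphatase activity; potency for inhibition where a drop in reporter signal means calcineurin blockade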
# T1 sequence (B9W6M3 whole entry): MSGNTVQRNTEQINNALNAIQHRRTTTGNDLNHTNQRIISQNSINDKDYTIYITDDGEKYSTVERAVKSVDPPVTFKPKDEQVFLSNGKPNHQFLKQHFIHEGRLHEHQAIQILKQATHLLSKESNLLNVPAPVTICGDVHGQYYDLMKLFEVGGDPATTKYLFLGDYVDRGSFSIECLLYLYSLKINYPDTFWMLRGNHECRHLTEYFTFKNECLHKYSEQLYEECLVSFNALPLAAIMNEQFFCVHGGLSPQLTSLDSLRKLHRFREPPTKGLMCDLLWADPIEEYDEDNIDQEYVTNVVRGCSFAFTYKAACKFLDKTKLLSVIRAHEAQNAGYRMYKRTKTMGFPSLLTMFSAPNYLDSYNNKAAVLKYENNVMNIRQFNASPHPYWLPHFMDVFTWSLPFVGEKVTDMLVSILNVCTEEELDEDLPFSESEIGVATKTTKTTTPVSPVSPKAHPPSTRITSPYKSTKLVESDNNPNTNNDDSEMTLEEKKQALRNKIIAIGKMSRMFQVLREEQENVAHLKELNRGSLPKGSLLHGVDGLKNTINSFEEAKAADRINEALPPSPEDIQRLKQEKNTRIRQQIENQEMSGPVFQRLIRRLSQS
# BJ [22] = experiment: growth inhibition of engineered Ras-driven BJ cells – cell-based, alamar blue fluorescence, cherrypicked samples, dose response (AID 2631); type: functional; settings: Homo sapiens;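 also: confirmatory dose-response assay in RAS-dependent BJ fibroblasts engineered with TERT, LT and ST, with cytotoxicity read by fluorescence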
# Vero [23] = experiment: cells; type: functional; settings: Chlorocebus sabaeus
# HEK293 [24] = experiment: inhibition of NOD1-driven NF-kB reporter – cell-based, luminescence, uHTS, primary screen (AID 1578); type: functional; settings: Homo sapiens
# INS1 = experiment: INS-1E survival protection against cytokine death – cell-based, luminescence, retest, dose response (AID 449756); type: functional; settings: Rattus norvegicus;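 also: cell death triggered by IL-1 beta plus TNF-alpha plus IFN-gamma mixture; protective hits raise ATP signal compared with cytokine alone wells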
# BJ [25] = experiment: cells; type: functional, cell-based; settings: Homo sapiens
# [26] = molecular target: Peroxisome proliferator-activated receptor gamma/Nuclear receptor coactivator 1 (Homo sapiens, UniProt P37231); type: functional;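 also: agonist potency as compounds enhance coactivator SRC-1 recruitment to PPARgamma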
# [27] = molecular target: Peroxisome proliferator-activated receptor gamma/Nuclear receptor coactivator 2 (Homo sapiens, UniProt P37231); type: functional;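 also: agonist potency for raising coactivator recruitment to the receptor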
# [28] = molecular target: Peroxisome proliferator-activated receptor gamma/Nuclear receptor coactivator 3 (Homo sapiens, UniProt P37231); type: functional;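 also: agonist potency for raising coactivator recruitment to the receptor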
# [29] = molecular target: 72 kDa type IV collagenase (Homo sapiens, UniProt P08253); experiment: Dose Response validation of uHTS RPN11 inhibitor hits using a MMP-2 Fluorescence assay.; type: functional
# 72 kDa type IV collagenase, sequence (P08253 whole entry): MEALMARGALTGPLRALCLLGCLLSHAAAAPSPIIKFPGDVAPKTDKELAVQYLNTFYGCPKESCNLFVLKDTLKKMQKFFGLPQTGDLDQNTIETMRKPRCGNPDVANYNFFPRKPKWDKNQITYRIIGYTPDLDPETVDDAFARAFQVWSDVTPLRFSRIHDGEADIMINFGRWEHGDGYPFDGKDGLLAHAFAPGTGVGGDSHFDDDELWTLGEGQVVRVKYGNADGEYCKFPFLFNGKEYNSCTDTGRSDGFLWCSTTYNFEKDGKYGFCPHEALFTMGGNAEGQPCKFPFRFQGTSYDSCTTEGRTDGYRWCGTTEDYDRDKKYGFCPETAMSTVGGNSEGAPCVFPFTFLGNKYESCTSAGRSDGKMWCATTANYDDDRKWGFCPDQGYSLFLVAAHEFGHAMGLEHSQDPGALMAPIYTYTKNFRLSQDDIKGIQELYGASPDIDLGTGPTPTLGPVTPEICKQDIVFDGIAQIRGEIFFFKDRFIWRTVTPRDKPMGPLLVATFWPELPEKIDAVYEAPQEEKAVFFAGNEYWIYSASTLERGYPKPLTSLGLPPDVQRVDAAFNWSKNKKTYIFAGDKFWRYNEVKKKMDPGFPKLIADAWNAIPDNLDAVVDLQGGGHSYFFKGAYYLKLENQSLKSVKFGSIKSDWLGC
# Insulin-degrading enzyme = molecular target: T2, Insulin-degrading enzyme (Homo sapiens, UniProt P14735); experiment: Dose Response: Fluorescence polarization-based cell-based high throughput dose response assay for inhibitors of insulin-degrading enzyme (IDE). [Related pubchem assays: 434962 (Primary screen (IDE inhibitors in singlicate)), 449730 (Counterscreen (Cytotoxicity in triplicate)), 435028 (Confirmation (IDE inhibitors in triplicate)), 434984 (Summary …; type: functional
# T2 sequence (P14735 whole entry): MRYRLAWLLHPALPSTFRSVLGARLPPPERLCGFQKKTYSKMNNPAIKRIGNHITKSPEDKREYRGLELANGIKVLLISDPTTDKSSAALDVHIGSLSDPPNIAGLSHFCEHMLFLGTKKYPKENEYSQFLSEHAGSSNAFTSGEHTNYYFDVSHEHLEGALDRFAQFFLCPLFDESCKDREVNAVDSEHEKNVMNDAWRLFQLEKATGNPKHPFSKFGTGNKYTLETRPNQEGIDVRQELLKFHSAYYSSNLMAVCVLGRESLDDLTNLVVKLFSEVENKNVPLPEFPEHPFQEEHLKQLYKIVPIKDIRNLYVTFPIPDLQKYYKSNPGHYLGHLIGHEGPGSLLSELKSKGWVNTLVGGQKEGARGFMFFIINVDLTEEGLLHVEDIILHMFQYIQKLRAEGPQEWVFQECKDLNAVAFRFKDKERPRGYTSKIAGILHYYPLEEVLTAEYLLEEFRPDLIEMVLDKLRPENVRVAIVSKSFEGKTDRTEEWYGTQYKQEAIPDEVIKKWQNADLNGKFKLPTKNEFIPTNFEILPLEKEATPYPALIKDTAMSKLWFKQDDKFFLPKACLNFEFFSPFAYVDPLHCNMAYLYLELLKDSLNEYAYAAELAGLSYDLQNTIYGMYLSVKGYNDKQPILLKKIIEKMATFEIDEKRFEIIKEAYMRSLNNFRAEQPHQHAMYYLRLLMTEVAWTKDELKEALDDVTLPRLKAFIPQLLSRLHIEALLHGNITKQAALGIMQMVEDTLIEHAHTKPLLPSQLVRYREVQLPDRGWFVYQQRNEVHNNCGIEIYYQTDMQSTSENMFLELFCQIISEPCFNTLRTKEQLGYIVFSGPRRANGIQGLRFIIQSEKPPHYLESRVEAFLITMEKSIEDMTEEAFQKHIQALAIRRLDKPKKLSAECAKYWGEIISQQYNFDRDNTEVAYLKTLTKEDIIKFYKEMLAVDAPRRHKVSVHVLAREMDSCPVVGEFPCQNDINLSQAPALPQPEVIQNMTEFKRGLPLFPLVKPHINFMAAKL
# [30] = molecular target: 26S proteasome non-ATPase regulatory subunit 14 (Homo sapiens, UniProt O00487); experiment: inhibition of proteasome subunit RPN11 – biochemical, fluorescence polarization, uHTS hits, confirmation (AID 602368); type: functional
# 26S proteasome non-ATPase regulatory subunit 14, sequence (O00487 whole entry): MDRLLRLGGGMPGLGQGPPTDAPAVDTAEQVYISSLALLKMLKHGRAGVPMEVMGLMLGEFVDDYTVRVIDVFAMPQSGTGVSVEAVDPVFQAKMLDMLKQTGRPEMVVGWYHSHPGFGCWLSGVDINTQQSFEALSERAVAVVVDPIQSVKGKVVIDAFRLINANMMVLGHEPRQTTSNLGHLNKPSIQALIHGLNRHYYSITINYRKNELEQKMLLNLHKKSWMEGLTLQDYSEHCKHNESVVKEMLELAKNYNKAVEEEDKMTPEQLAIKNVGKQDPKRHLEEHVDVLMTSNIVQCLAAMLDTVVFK
# [31] = Counterscreen for IDE inhibitors: Luminescence-based cell-based high throughput dose response assay to identify compounds that are cytotoxic to HEK cells. [Related pubchem assays: 434962 (Primary screen (IDE inhibitors in singlicate)), 449730 (Counterscreen (Cytotoxicity in triplicate)), 435028 (Confirmation (IDE inhibitors in triplicate)) …; type: functional; settings: HEK293
# Prothrombin = Prothrombin (Bos taurus, UniProt P00735); experiment: thrombin protease inhibitors – biochemical, fluorescence polarization, uHTS hits, dose response (AID 602369); type: functional
# [32] = molecular target: T3, RNA-binding protein pos-1 (Caenorhabditis elegans, UniProt G5EF15); experiment: disruptors of C. elegans POS-1 RNA interaction – biochemical, fluorescence polarization, dose response (AID 1964);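 also: purified POS-1 fused to maltose binding protein made in E. coli; potency of compounds blocking POS-1 binding to fluorescent RNA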
# T3 sequence (G5EF15 whole entry): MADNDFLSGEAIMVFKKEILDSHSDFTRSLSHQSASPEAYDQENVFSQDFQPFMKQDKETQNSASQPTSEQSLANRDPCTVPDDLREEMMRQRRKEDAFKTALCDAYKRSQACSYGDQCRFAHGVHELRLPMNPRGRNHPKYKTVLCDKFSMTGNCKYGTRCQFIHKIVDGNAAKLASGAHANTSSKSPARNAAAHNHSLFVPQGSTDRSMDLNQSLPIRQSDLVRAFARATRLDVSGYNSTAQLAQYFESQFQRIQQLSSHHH
# [33] = molecular target: T4, Zinc finger protein mex-5 (Caenorhabditis elegans, UniProt Q9XUB2); experiment: potency of MEX-5 RNA-binding blockers – biochemical, C. elegans, fluorescence polarization, dose response (AID 1960)
# T4 sequence (Q9XUB2 whole entry): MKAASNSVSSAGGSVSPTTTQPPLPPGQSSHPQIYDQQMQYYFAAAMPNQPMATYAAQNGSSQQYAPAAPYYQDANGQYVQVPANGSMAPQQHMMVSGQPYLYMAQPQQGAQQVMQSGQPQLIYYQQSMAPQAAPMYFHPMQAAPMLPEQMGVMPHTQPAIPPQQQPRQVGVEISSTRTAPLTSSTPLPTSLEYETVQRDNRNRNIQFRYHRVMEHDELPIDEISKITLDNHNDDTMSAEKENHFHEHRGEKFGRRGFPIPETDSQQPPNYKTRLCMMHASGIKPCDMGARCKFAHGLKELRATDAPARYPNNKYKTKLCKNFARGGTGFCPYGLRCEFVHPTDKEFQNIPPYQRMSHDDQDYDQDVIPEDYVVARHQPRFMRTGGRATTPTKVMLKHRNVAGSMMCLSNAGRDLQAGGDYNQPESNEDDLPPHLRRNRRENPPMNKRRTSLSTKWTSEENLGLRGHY
structure (smiles),measurement,setting,value
O=C(NCc1ccco1)c1ccc(Cn2c(=O)c3ccccc3n(Cc3ccc(Cl)cc3)c2=O)cc1,AC50,[1],5.95 µM (active)
same,AC50,[2],0.421 µM (active)
same,CC50,[3],> 50 µM (active)
same,IC50,cells,0.58 µM (active)
same,AC50,[4],0.669 µM (active)
same,AC50,[5],1.48 µM (active)
COc1cc(C)ccc1S(=O)(=O)N1CCCCCC1,EC50,Mucolipin-3,2.84 µM (active)
same,EC50,Ion channel NompC,> 29.9 µM (not active)
COc1cccc(N=Nc2ccc(O)c3ncccc23)c1,EC50,[6],0.79 µM (active)
same,EC50,[7],13.6 µM (active)
same,AC50,HEK293 [8],3.6 µM (active)
same,EC50,[9],> 20 µM (inactive)
same,EC50,[10],> 160 µM (inactive)
same,IC50,Vero [11],> 25 µM (active)
same,IC50,HEK293 [12],3.4 µM (inactive)
same,EC50,BJ [13],8.08 µM (inconclusive)
same,IC50,HEK293 [14],> 20 µM (inactive)
same,IC50,HEK293 [15],3.04 µM (active)
same,EC50,[16],12.7 µM (inconclusive)
same,AC50,[17],4.01 µM (active)
same,EC50,BJ [18],7.7 µM (inconclusive)
same,EC50,[19],2.99 µM (active)
same,IC50,HEK293 [20],> 20 µM (inactive)
same,EC50,[21],> 180 µM (inactive)
same,EC50,BJ [22],1.05 µM (active)
same,CC50,Vero [23],6.41 µM (active)
same,EC50,HEK293 [24],3.74 µM (active)
same,AC50,INS1,2.1 µM (active)
same,EC50,BJ [25],2.8 µM (inconclusive)
COc1cnn(-c2ccccc2)c(=O)c1N(C)C,EC50,[26],> 79.4 µM (not active)
same,EC50,[27],> 79.4 µM (not active)
same,EC50,[28],> 79.4 µM (not active)
COc1cc(OC)c(OC)cc1/C=C1\Oc2cc(OS(C)(=O)=O)ccc2C1=O,IC50,[29],> 100 µM (inactive)
same,IC50,Insulin-degrading enzyme,> 55.9 µM (not active)
same,IC50,[30],4.35 µM (active)
same,IC50,[31],> 55.7 µM (not active)
same,IC50,Prothrombin,0.468 µM (active)
same,EC50,[32],> 300 µM (not active)
same,EC50,[33],> 300 µM (not active)
Cc1ccc(S(=O)(=O)N2CC3CCCC2C3)cc1 (stereo unspecified),EC50,Mucolipin-3,3.78 µM (active)
same,EC50,Ion channel NompC,> 29.9 µM (not active)

# — ChEMBL document CHEMBL1201862, “PubChem BioAssay data set” (2004)
